Test results published in ChEMBL document CHEMBL5506073, “Discovery of Novel Ortho-Aminophenol Derivatives Targeting Lipid Peroxidation with Potent Antiferroptotic Activities” (J Med Chem, 2024).
Activity calls are given as the source filed them.

How the values were obtained:
[1] = tested on: HT-1080; assay: Effect on iron metabolism in human HT-1080 cells assessed as change in FTH1 mRNA level by qRT-PCR analysis; type: functional, cell-based
[2] = tested on: HT-1080; assay: Effect on lipid metabolism in human HT-1080 cells assessed as change in COX2 mRNA level by qRT-PCR analysis; type: functional, cell-based
[3] = tested on: SW480; assay: Inhibition of FIN56-induced ferroptosis in human SW480 cells assessed as cell viability at 200 nM incubated for 24 hrs by CCK8 assay; type: functional, cell-based
[4] = tested on: HT-1080; assay: Inhibition of ferroptosis in human HT-1080 cells assessed as reversal of RSL3-induced normal morphological loss; type: functional, cell-based
[5] = tested on: HT-1080; assay: Effect on lipid metabolism in human HT-1080 cells assessed as change in ACSL4 mRNA level by qRT-PCR analysis; type: functional, cell-based
[6] = tested on: HT-1080; assay: Effect on iron metabolism in human HT-1080 cells assessed as change in TFRC mRNA level by qRT-PCR analysis; type: functional, cell-based
[7] = tested on: HTR-8/SVneo; assay: Inhibition of RSL3-induced ferroptosis in human HTR-8/SVneo cells assessed as cell viability at 200 nM incubated for 24 hrs by CCK8 assay; type: functional, cell-based
[8] = tested on: HKC; assay: Inhibition of RSL3-induced ferroptosis in human HKC cells assessed as cell viability at 200 nM incubated for 24 hrs by CCK8 assay; type: functional, cell-based
[9] = tested on: Mus musculus; assay: Protection against APAP-induced acute liver injury in overnight fasted C57BL/6 mouse model assessed as reduction in 4-HNE formation in liver at 10 mg/kg, ip administered 1 hr prior to APAP treatment measured after 12 hrs post-APAP treatment under continuous fasting condition by IHC analysis; type: functional, organism-based; conditions: time 13.0 hrs
[10] = tested on: Mus musculus; assay: Protection against APAP-induced acute liver injury in overnight fasted C57BL/6 mouse model assessed as reversal of native liver architecture at 10 mg/kg, ip administered 1 hr prior to APAP treatment measured after 12 hrs post-APAP treatment under continuous fasting condition by H and E staining based analysis; type: functional, organism-based; conditions: time 13.0 hrs
[11] = tested on: HTR-8/SVneo; assay: Inhibition of FIN56-induced ferroptosis in human HTR-8/SVneo cells assessed as cell viability at 200 nM incubated for 24 hrs by CCK8 assay; type: functional, cell-based
[12] = Antioxidant activity assessed as DPPH radical scavenging activity at 20 uM incubated for 30 mins by absorbance based assay; type: functional
[13] = tested on: HT-1080; assay: Effect on glutathione metabolic pathway in human HT-1080 cells assessed as change in GPX4 mRNA level by qRT-PCR analysis; type: functional, cell-based
[14] = tested on: HK-2; assay: Inhibition of FIN56-induced ferroptosis in human HK-2 cells assessed as cell viability at 200 nM incubated for 24 hrs by CCK8 assay; type: functional, cell-based
[15] = tested on: Mus musculus; assay: Protection against kidney ischemia-reperfusion injury in C57BL/6 mouse model assessed as decrease in cytoplasmic vacuoles in kidney at 10 mg/kg, ip administered twice 1 hr prior to ischemia onset measured after 24 hrs post-ischemia by H and E staining based analysis; type: functional, organism-based; conditions: time 25.0 hrs
[16] = tested on: HT-1080; assay: Effect on iron metabolism in human HT-1080 cells assessed as change in DMT1 mRNA level by qRT-PCR analysis; type: functional, cell-based
[17] = tested on: Mus musculus; assay: Protection against APAP-induced acute liver injury in overnight fasted C57BL/6 mouse model assessed as decrease in plasma ALT level at 10 mg/kg, ip administered 1 hr prior to APAP treatment measured after 12 hrs post-APAP treatment under continuous fasting condition; type: functional, organism-based; conditions: time 13.0 hrs
[18] = tested on: HT-1080; assay: Effect on lipid metabolism in human HT-1080 cells assessed as change in ALOX15 mRNA level by qRT-PCR analysis; type: functional, cell-based
[19] = tested on: Mus musculus; assay: Protection against kidney ischemia-reperfusion injury in C57BL/6 mouse model assessed as decrease in BUN level at 10 mg/kg, ip administered twice 1 hr prior to ischemia onset measured after 24 hrs post-ischemia; type: functional, organism-based; conditions: time 25.0 hrs
[20] = tested on: HT-1080; assay: Inhibition of RSL3-induced lipid peroxidation in human HT-1080 cells assessed as reduction in green fluorescence by C11-BODIPY581/591 probe based analysis; type: functional, cell-based
[21] = tested on: HT-1080; assay: Inhibition of RSL3-induced ferroptosis in human HT-1080 cells assessed as cell viability incubated for 24 hrs by CCK8 assay; type: functional, cell-based; conditions: HT-1080, 24 h
[22] = Antioxidant activity assessed as DPPH radical scavenging activity at 10 uM incubated for 30 mins by absorbance based assay; type: functional
[23] = tested on: HT-1080; assay: Inhibition of RSL3-induced ferroptosis in human HT-1080 cells assessed as cell viability at 0.5 uM incubated for 24 hrs by CCK8 assay; type: functional, cell-based
[24] = tested on: Mus musculus; assay: (§1) Protection against APAP-induced acute liver injury in overnight fasted C57BL/6 mouse model assessed as normal pathology of liver at 10 mg/kg, ip administered 1 hr prior to APAP treatment measured after 12 hrs post-APAP treatment under continuous fasting condition by H and E staining based analysis; type: functional, organism-based; conditions: time 13.0 hrs
[25] = tested on: HKC; assay: Inhibition of FIN56-induced ferroptosis in human HKC cells assessed as cell viability at 200 nM incubated for 24 hrs by CCK8 assay; type: functional, cell-based
[26] = tested on: Mus musculus; assay: Protection against kidney ischemia-reperfusion injury in C57BL/6 mouse model assessed as decrease in serum creatinine level at 10 mg/kg, ip administered twice 1 hr prior to ischemia onset measured after 24 hrs post-ischemia; type: functional, organism-based; conditions: time 25.0 hrs
[27] = tested on: HT-1080; assay: Inhibition of RSL3-induced ferroptosis in human HT-1080 cells assessed as cell viability at 200 nM incubated for 24 hrs by CCK8 assay; type: functional, cell-based
[28] = tested on: HT-1080; assay: Inhibition of FIN56-induced ferroptosis in human HT-1080 cells assessed as cell viability at 200 nM incubated for 24 hrs by CCK8 assay; type: functional, cell-based
[29] = tested on: Mus musculus; assay: Protection against kidney ischemia-reperfusion injury in C57BL/6 mouse model assessed as decrease in KIM-1 level in kidney at 10 mg/kg, ip administered twice 1 hr prior to ischemia onset measured after 24 hrs post-ischemia by IHC analysis; type: functional, organism-based; conditions: time 25.0 hrs
[30] = tested on: HT-1080; assay: Inhibition of ferroptosis in human HT-1080 cells assessed as reversal of RSL3-induced cell shrinkage; type: functional, cell-based
[31] = tested on: Mus musculus; assay: Protection against APAP-induced acute liver injury in overnight fasted C57BL/6 mouse model assessed as decrease in plasma AST level at 10 mg/kg, ip administered 1 hr prior to APAP treatment measured after 12 hrs post-APAP treatment under continuous fasting condition; type: functional, organism-based; conditions: time 13.0 hrs
[32] = tested on: HT-1080; assay: Inhibition of RSL3-induced lipid peroxidation in human HT-1080 cells assessed as reduction in MDA adduct accumulation by ELISA; type: functional, cell-based
[33] = tested on: SW480; assay: Inhibition of RSL3-induced ferroptosis in human SW480 cells assessed as cell viability at 200 nM incubated for 24 hrs by CCK8 assay; type: functional, cell-based
[34] = tested on: HT-1080; assay: Inhibition of ferroptosis in human HT-1080 cells assessed as reversal of RSL3-induced membrane rupture; type: functional, cell-based
[35] = tested on: HT-1080; assay: Inhibition of ferroptosis in human HT-1080 cells assessed as reversal of RSL3-induced swelling; type: functional, cell-based
[36] = tested on: Mus musculus; assay: Protection against kidney ischemia-reperfusion injury in C57BL/6 mouse model assessed as decrease in brush edges loss in kidney at 10 mg/kg, ip administered twice 1 hr prior to ischemia onset measured after 24 hrs post-ischemia by H and E staining based analysis; type: functional, organism-based; conditions: time 25.0 hrs
[37] = tested on: Mus musculus; assay: as §1, with “reduction in necrotic areas” for “normal pathology”; type: functional, organism-based; conditions: time 13.0 hrs
[38] = tested on: HK-2; assay: Inhibition of RSL3-induced ferroptosis in human HK-2 cells assessed as cell viability at 200 nM incubated for 24 hrs by CCK8 assay; type: functional, cell-based
[39] = tested on: HT-1080; assay: Effect on glutathione metabolic pathway in human HT-1080 cells assessed as change in SLC7A11 mRNA level by qRT-PCR analysis; type: functional, cell-based
[40] = tested on: KHOS/NP; assay: Inhibition of RSL3-induced ferroptosis in human KHOS/NP cells assessed as cell viability at 200 nM incubated for 24 hrs by CCK8 assay; type: functional, cell-based
[41] = tested on: KHOS/NP; assay: Inhibition of FIN56-induced ferroptosis in human KHOS/NP cells assessed as cell viability at 200 nM incubated for 24 hrs by CCK8 assay; type: functional, cell-based
[42] = tested on: Mus musculus; assay: Protection against kidney ischemia-reperfusion injury in C57BL/6 mouse model assessed as decrease in renal tubule dilation at 10 mg/kg, ip administered twice 1 hr prior to ischemia onset measured after 24 hrs post-ischemia by H and E staining based analysis; type: functional, organism-based; conditions: time 25.0 hrs
[43] = tested on: HT-1080; assay: Inhibition of RSL3-induced ferroptosis in human HT-1080 cells assessed as cell viability upto 10 uM incubated for 24 hrs by CCK8 assay; type: functional, cell-based

CC(C)COC(=O)c1cccc(O)c1N
inactive: Activity [1] | Activity [2] | Activity [5] | Activity [6] | Activity [13] | Activity [16] | Activity [18] | Activity [39]
158 nM: EC50 [21]
active: inhibition [3] | inhibition [4] | inhibition [7] | inhibition [8] | Activity [9] | Activity [10] | inhibition [11] | Activity [12] | inhibition [14] | Activity [15] | Activity [17] | Activity [19] | inhibition [20] | Activity [22] | inhibition [23] | Activity [24] | inhibition [25] | Activity [26] | inhibition [27] | inhibition [28] | Activity [29] | inhibition [30] | Activity [31] | inhibition [32] | inhibition [33] | inhibition [34] | inhibition [35] | Activity [36] | Activity [37] | inhibition [38] | inhibition [40] | inhibition [41] | Activity [42]

Nc1c(O)cccc1C(=O)O
inactive: inhibition [43]

Cc1ccc(CSc2nnc(-c3cccc(O)c3N)o2)cc1
active: inhibition [3] | inhibition [4] | inhibition [7] | inhibition [8] | Activity [9] | Activity [10] | inhibition [11] | Activity [12] | inhibition [14] | Activity [15] | Activity [17] | Activity [19] | inhibition [20] | Activity [24] | inhibition [25] | Activity [26] | inhibition [27] | inhibition [28] | Activity [29] | inhibition [30] | Activity [31] | inhibition [32] | inhibition [33] | inhibition [34] | inhibition [35] | Activity [36] | Activity [37] | inhibition [38] | inhibition [40] | inhibition [41] | Activity [42]
46 nM: EC50 [21]
inactive: Activity [1] | Activity [2] | Activity [5] | Activity [6] | Activity [13] | Activity [16] | Activity [18] | Activity [39]
